According to patent publication US20130281504A1, “Reduction of Microglia-Mediated Neurotoxicity by KCa3.1 Inhibition” (THE REGENTS OF THE UNIVERSITY OF CALIFORNIA, priority 2010, published 2013):
Where “and” joins values, the source holds several entries; their conditions need not be identical. Equal entries are not always repeated.

What was measured:
[1] = Pharmacokinetics and brain concentrations in rats (HPLC/MS); settings: rat
Description: At various time points following the injection approximately 100-200 μl of blood were collected from a tail nick into EDTA blood sample collection tubes. […] Blood samples were taken by cardiac puncture under deep isoflurane anesthesia. The right atrium was then cut open and 20 mL of saline slowly injected into the left ventricle to flush the blood out of the circulation. The rats were then sacrificed and brains removed. Plasma was separated by centrifugation and samples stored at −80° C. pending analysis. Plasma and homogenized brain samples were purified using C18 solid phase extraction (SPE) cartridges. […] LC/MS analysis was performed with a Hewlett-Packard 1100 series HPLC stack equipped with a Merck KGaA RT 250-4 LiChrosorb RP-18 column interfaced to a Finnigan LCQ Classic MS. The mobile phase consisted of acetonitrile and water, both containing 0.2% formic acid.

[2] = tested on: middle cerebral artery occlusion (MCAO); test: MCAO with 7 days of reperfusion, treatment started 2 h after reperfusion; type: in vivo, rat; settings: 10 mg/kg twice daily 7 days from 2 h after reperfusion
Source text: Adult male Wistar rats weighing 160-180 g were purchased from Charles River (Wilmington, Mass.), acclimatized to the new vivarium for 5-7 days and used for the surgery when they weighed 200-230 g. Rats were anesthetized using box induction with 5% isoflurane and then maintained on 0.5%-1.5% isoflurane in medical grade oxygen via a facemask. In order to assure consistent reduction of cerebral blood flow (CBF) throughout the procedure, we affixed a small hand-made adaptor for the Laser Doppler probe (Moor Instruments, Wilmington, Del.) to the surface of the skull. The center of the adapter was 5 mm lateral to the central fusion line and 2.5 mm posterior to bregma. […] Neurological deficits were scored according to a 4-score test and a tactile and/or proprioceptive limb-placing test as follows: 1) 4-score test (higher score for more severe neurological deficits): 0=no apparent deficit; 1=contralateral forelimb is consistently flexed during suspension by holding the tail; 2=decreasing grip ability on the contralateral forelimb while tail pulled; 3=spontaneous movement in all directions but circling to contralateral side when pulled by the tail; 4=spontaneous contralateral circling or depressed level of consciousness. […] The paw was pulled down and away from the platform edge, and the ability to retrieve and place the paw on the table surface upon sudden release was assessed. […]

[3] = tested on: middle cerebral artery occlusion (MCAO); test: MCAO with 7 days of reperfusion, treatment started 12 h after reperfusion; type: in vivo, rat; design: key to neurological deficit, 4-score system: 0 = no deficit to 4 = most severe deficit; key to neurological deficit, 14-score system: 14-point limb placing score; lower = more severe deficit; settings: for mean infarct size (H&E defined lesion area): controls 22.6±3.6%
Source text: Adult male Wistar rats weighing 160-180 g were purchased from Charles River (Wilmington, Mass.), acclimatized to the new vivarium for 5-7 days and used for the surgery when they weighed 200-230 g. Rats were anesthetized using box induction with 5% isoflurane and then maintained on 0.5%-1.5% isoflurane in medical grade oxygen via a facemask. In order to assure consistent reduction of cerebral blood flow (CBF) throughout the procedure, we affixed a small hand-made adaptor for the Laser Doppler probe (Moor Instruments, Wilmington, Del.) to the surface of the skull. The center of the adapter was 5 mm lateral to the central fusion line and 2.5 mm posterior to bregma. Instant adhesive and dental cement were applied to the base and around the edges of the small plastic adapter to hold the Doppler probe. The adapter with the attached probe remained in place throughout the MCAO surgery to confirm continuous occlusion and later the establishment of reperfusion. Focal cerebral ischemia was then induced by occlusion of the left middle cerebral artery (MCA). The left common carotid artery was surgically exposed, the external carotid artery was ligated distally from the common carotid artery, and a silicone rubber coated nylon monofilament with a tip diameter of 0.43±0.02 mm (Doccol Corp., Redlands, Calif.) was inserted into the external carotid artery and advanced into the internal carotid artery to block the origin of the middle cerebral artery (when maximum CBF reduction observed). The filament was kept in place for 90 min and then withdrawn and removed from the blood vessel to restore blood supply. […] Neurological deficits were scored according to a 4-score test and a tactile and/or proprioceptive limb-placing test as follows: 1) 4-score test (higher score for more severe neurological deficits): 0=no apparent deficit; 1=contralateral forelimb is consistently flexed during suspension by holding the tail; 2=decreasing grip ability on the contralateral forelimb while tail pulled; 3=spontaneous movement in all directions but circling to contralateral side when pulled by the tail; 4=spontaneous contralateral circling or depressed level of consciousness. 2) 14-score limb placing test (lower score for more severe neurological deficits): Proprioception, forward extension, lateral abduction, and adduction were tested with vision or tactile stimuli. For visual limb placing, rats were held and slowly moved forward or lateral toward the top of a table. Normal rats placed both forepaws on the tabletop. Tactile forward and lateral limb placing were tested by lightly contacting the table edge with the dorsal or lateral surface of a rat's paw while avoiding whisker contact and covering the eyes to avoid vision. For proprioceptive hind limb placing, each rat was pushed along the edge of an elevated platform in order to test proprioceptive hind limb adduction. The paw was pulled down and away from the platform edge, and the ability to retrieve and place the paw on the table surface upon sudden release was assessed. For each test, limb placing scores were 0=no placing; 1=incomplete and/or delayed (>2 seconds) placing; or 2=immediate and complete placing. For each body side, the maximum summed visual limb placing score was 4 and the maximum summed tactile and proprioceptive limb placing score, including the platform test, was 10.
Rats were euthanized with an overdose of isoflurane. Blood samples for determination of electrolytes, pH, pCO2, glucose and hemoglobin (I-STAT; Abbott, Princeton, N.J.) were drawn from the vena cava and brains quickly removed and sectioned into eight 2-mm thick slices starting from the frontal pole. Slices were then fixed in 10% buffer formalin embedded in paraffin and sectioned at 5 Sections were stained with hematoxylin & eosin and scanned. […]

[4] = Physiological parameters by I-STAT in venous blood of MCAO rats; type: in vivo, rat; settings: ±SD
Description: […] […] Slices were then fixed in 10% buffer formalin embedded in paraffin and sectioned at 5 Sections were stained with hematoxylin & eosin and scanned. The resulting jpg images were analyzed in Adobe Photoshop CS3 for infarct area using the Magnetic Lasso tool to outline the area and the Histogram tool to determine the number of pixels in the respective area. Percent infarct for each slice was calculated as: (pixels in […]/pixels in whole control hemisphere)×100. Percentage of total infarct area of whole hemisphere was calculated as: (summation of pixels in infarct from 8 slices/summation of pixels in whole control hemisphere from 8 slices)×100. The degree of brain shrinkage was calculated from the same data.

[5] = tested on: experimental autoimmune encephalomyelitis (EAE); settings: mice; cited from earlier work
[6] = After Reperfusion, TRAM-34 10 mg/kg
[7] = After Reperfusion, TRAM-34 40 mg/kg
[8] = Day-7 after MCAO, TRAM-34 10 mg/kg
[9] = Day-7 after MCAO, TRAM-34 40 mg/kg

## Clc1ccccc1C(c1ccccc1)(c1ccccc1)n1cccn1 [TRAM-34, 1-[(2-chlorophenyl)diphenylmethyl]-1H-pyrazole]
[1]; Wistar, in vivo
  Kp: 1.2
[1]; male, Wistar, in vivo, iv, 10 mg/kg, half-life, rat plasma, calculated from elimination part of i.v. plot
  half-life: ~2 h
[1]; i.p. 10 mg/kg, between 30 min and 1 hour
  total plasma and brain levels, peak: around 2.5
[1]; s.c. 120 mg/kg
  plasma peaks: 2.5 ± 1 µM
[2]
  amount of activated (ED1+) microglia/macrophages in infarcted hemisphere: reduced
[2]; control 18.8±3.5%, mean±SEM, P=0.007
  mean infarct area, % of ipsolateral triphenyltetrazolium chloride positive hemisphere area: 6.6±1.9%
[3]; 10 mg/kg group, 12 h after reperfusion (start of treatment), vehicle 4.3±0.94
  neurological deficit, 14-score system: 4.8±0.63
[3]; 10 mg/kg group, 12 hours after reperfusion (start of treatment), vehicle 3.1±0.20
  neurological deficit, 4-score system: 3.3±0.50
[3]; 10 mg/kg, 196 h (=7 days) after reperfusion, vehicle 1.5±0.30, P=0.24
  neurological deficit, 4-score system: 0.8±0.10
[3]; 10 mg/kg, 196 h (=7 days) after reperfusion, vehicle 7.5±0.46, P=0.004
  neurological deficit, 14-score system: 9.8±0.01
[3]; 10 mg/kg, delayed administration
  microglia activation (ED1+ area): did not result in a significant reduction
[3]; 10 mg/kg, P=0.11, not significant
  brain shrinkage: tended to reduce
[3]; 10 mg/kg, P=0.143 cortex, 0.230 striatum
  number of TUNEL-positive cells in cortex and striatum: did not reach statistical significance
[3]; 10 mg/kg, mean±SEM, P=0.039
  mean infarct size (H&E defined lesion area): 11.3±2.8%
[3]; 40 mg/kg group, 12 h after reperfusion (start of treatment), vehicle 4.3±0.94
  neurological deficit, 14-score system: 3.4±0.46
[3]; 40 mg/kg group, 12 hours after reperfusion (start of treatment), vehicle 3.1±0.20
  neurological deficit, 4-score system: 3.0±0.80
[3]; 40 mg/kg, day-7 / 196 h after reperfusion, vehicle 1.5±0.30, P=0.02
  neurological deficit, 4-score system: 0.5 and 0.4±0.01
[3]; 40 mg/kg, day-7 / 196 h after reperfusion, vehicle 7.5±0.46, P<0.001
  neurological deficit, 14-score system: 11±0.38 and 12
[3]; 40 mg/kg, P=0.0067 cortex, 0.033 striatum
  number of apoptotic (TUNEL positive) cells in cortex and striatum: significantly reduced
[3]; 40 mg/kg, P=0.052
  average number of surviving NeuN+ neurons in the infarcted hemisphere: increase
[3]; 40 mg/kg, P=0.004
  mean infarct size (H&E defined lesion area): 8.1±1.9%
[3]; 40 mg/kg, vehicle 3770.6±594.2, P=0.03, mean±SEM
  ED1+ area in the infarcted hemisphere: 1632.6±363.75 pixels/mm^2
[3]; 10 or 40 mg/kg i.p. twice daily 7 days from 12 h after reperfusion, both doses
  reduction of infarct area (H&E, day-7): ~50%
[4]; [6]
  HCO3^−: 33.8 ± 6.4 mmol/L
  Hemoglobin: 14.3 ± 1.5 g/dL
  K^+: 6.3 ± 1.1 mmol/L
  pCO2: 66.6 ± 28.3 mm Hg
  pH: 7.34 ± 0.1
[4]; [7]
  Hemoglobin: 14.5 ± 1.4 g/dL
  K^+: 5.7 ± 0.5 mmol/L
  Na^+: 135.5 ± 2.3 mmol/L
  pCO2: 60.8 ± 33.4 mm Hg
[4]; [8]
  BUN: 18.7 ± 6.8 mg/dL
  Glucose: 185.2 ± 41.2 mg/dL
  HCO3^−: 29.7 ± 2.5 mmol/L
  Hemoglobin: 12.7 ± 2.1 g/dL
  K^+: 4.8 ± 1.1 mmol/L
  Na^+: 137.7 ± 4.1 mmol/L
  pCO2: 58.1 ± 12.7 mm Hg
  pH: 7.3 ± 0.06
[4]; [9]
  BUN: 19.6 ± 4.7 mg/dL
  Glucose: 201.1 ± 40.1 mg/dL
  HCO3^−: 29.2 ± 1.3 mmol/L
  Hemoglobin: 13.3 ± 1.5 g/dL
  K^+: 4.2 ± 0.3 mmol/L
  Na^+: 138.8 ± 3.5 mmol/L
  pCO2: 49.3 ± 7.3 mm Hg
  pH: 7.4 ± 0.07
[5]
  experimental autoimmune encephalomyelitis (EAE): treats
